US20090036450A1, “PYRAZOLE COMPOUNDS AND USE THEREOF” (JAPAN TOBACCO, INC., priority 2006, published 2009)
pIC50: −log10 of the molar value. Structures can show the parent of a compound that is named as a salt.

Biological target: T1, human liver glycogen phosphorylase (Homo sapiens, UniProt P06737)
T1 construct: made in house; host or cells: Sf9 insect cells (suspension of disrupted cells, diluted in BES buffer, not purified)
T1 sequence (P06737 1-847): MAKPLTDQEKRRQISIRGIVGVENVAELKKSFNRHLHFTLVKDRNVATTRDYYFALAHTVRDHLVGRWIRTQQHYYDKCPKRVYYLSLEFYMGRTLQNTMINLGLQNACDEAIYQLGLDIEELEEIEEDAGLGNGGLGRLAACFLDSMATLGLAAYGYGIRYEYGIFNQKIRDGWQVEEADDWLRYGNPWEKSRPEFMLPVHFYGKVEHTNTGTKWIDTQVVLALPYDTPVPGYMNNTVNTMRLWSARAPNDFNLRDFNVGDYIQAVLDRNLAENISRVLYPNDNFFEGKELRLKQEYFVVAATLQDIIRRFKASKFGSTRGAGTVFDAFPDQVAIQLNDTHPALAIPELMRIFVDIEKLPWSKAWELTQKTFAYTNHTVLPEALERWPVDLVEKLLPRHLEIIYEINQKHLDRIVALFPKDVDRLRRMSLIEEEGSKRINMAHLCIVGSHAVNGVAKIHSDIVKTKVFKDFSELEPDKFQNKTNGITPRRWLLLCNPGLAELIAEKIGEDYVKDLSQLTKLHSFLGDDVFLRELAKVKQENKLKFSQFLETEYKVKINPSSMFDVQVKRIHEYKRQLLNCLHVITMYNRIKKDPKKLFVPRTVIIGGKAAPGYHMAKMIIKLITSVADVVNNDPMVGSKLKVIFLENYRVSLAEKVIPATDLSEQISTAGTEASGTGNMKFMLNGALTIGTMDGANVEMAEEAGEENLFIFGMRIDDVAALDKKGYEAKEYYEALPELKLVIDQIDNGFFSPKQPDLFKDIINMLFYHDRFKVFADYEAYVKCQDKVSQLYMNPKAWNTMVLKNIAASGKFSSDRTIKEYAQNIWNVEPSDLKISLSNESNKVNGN
Assay: Liver glycogen phosphorylase activity, forward reaction system (NADPH detection at 340 nm)
Format: biochemical
Settings: enzyme inhibitory activity against recombinant human liver glycogen phosphorylase (Sf9 cell lysate), room temperature, 75 minutes
Method in brief: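 Recombinant human liver glycogen phosphorylase from Sf9 lysate, run in forward direction with glycogen and phosphate substrate plus glucose, coupled via phosphoglucomutase/G6PDH to NADPH formation. BES buffer pH 6.8, room temperature, 75 min; A340 change minus blank gives activity. IC50 from percent inhibition vs DMSO control.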

Row | SMILES | pIC50
1 | CCc1nc(Cc2nc(C)c(CNC(=O)c3cc(NC(=O)c4cc(F)c(F)cc4Cl)[nH]n3)o2)n[nH]1 [Example 1-86, 5-(2-chloro-4,5-difluoro-benzoylamino)-1H-pyrazole-3-carboxylic acid [2-(5-ethyl-1H-[1,2,4]thiazol-3-ylmethyl)-4-methyl-oxazol-5-ylmethyl]-amide hydrochloride] | > 7.00
2 | O=C(NCc1n[nH]c(-c2ccc(Cl)cc2)n1)c1cc(NC(=O)c2cc(F)c(F)cc2Cl)[nH]n1 [Example 1-87, 5-(2-chloro-4,5-difluoro-benzoylamino)-1H-pyrazole-3-carboxylic acid [5-(4-chloro-phenyl)-1H-[1,2,4]triazol-3-ylmethyl]-amide] | > 7.00
3 | COc1ccc(Cc2nc(CNC(=O)c3cc(NC(=O)c4cc(F)c(F)cc4Cl)[nH]n3)n[nH]2)cc1OC [Example 1-88, 5-(2-chloro-4,5-difluoro-benzoylamino)-1H-pyrazole-3-carboxylic acid [5-(3,4-dimethoxy-benzyl)-1H-[1,2,4]triazol-3-ylmethyl]-amide] | > 7.00
4 | CCOC(=O)c1nc(C)oc1CNC(=O)c1cc(NC(=O)c2cc(F)c(F)cc2C)[nH]n1 [Example 2-1, 5-(4,5-difluoro-2-methyl-benzoylamino)-1H-pyrazole-3-carboxylic acid (4-ethoxycarbonyl-2-methyl-oxazol-5-ylmethyl)-amide] | > 7.00
5 | O=C(NCc1ccc(C(=O)O)o1)c1cc(NC(=O)c2cc(F)c(F)cc2Cl)[nH]n1 [Example 3-1, 5-(2-chloro-4,5-difluoro-benzoylamino)-1H-pyrazole-3-carboxylic acid (2-carboxy-furan-5-ylmethyl)-amide] | > 7.00
6 | Cc1nc(C(=O)O)sc1CNC(=O)c1cc(NC(=O)c2cc(F)c(F)cc2Cl)[nH]n1 [Example 3-2, sodium 5-({[5-(2-chloro-4,5-difluoro-benzoylamino)-1H-pyrazole-3-carbonyl]-amino}-methyl)-4-methyl-thiazole-2-carboxylate] | > 7.00
7 | O=C(O)c1cc(CNC(=O)c2cc(NC(=O)c3cc(F)c(F)cc3Cl)[nH]n2)on1 [Example 3-3, 5-(2-chloro-4,5-difluoro-benzoylamino)-1H-pyrazole-3-carboxylic acid (3-carboxy-isoxazol-5-ylmethyl)-amide] | 6.52 to 7.00
8 | Cc1nc(COC(=O)c2ccccc2)c(CNC(=O)c2cc(NC(=O)c3cc(F)c(F)cc3Cl)[nH]n2)o1 [Example 3-5, 5-(2-chloro-4,5-difluoro-benzoylamino)-1H-pyrazole-3-carboxylic acid (4-benzoyloxymethyl-2-methyl-oxazol-5-ylmethyl)-amide] | > 7.00
9 | Cc1nc(C(=O)O)c(CNC(=O)c2cc(NC(=O)c3cc(F)c(F)cc3Cl)[nH]n2)o1 [Example 3-6, 5-(2-chloro-4,5-difluoro-benzoylamino)-1H-pyrazole-3-carboxylic acid (4-carboxy-2-methyl-oxazol-5-ylmethyl)-amide] | > 7.00
10 | Cc1nc(COCC(=O)O)oc1CNC(=O)c1cc(NC(=O)c2cc(F)c(F)cc2Cl)[nH]n1 [Example 3-7, 5-(2-chloro-4,5-difluoro-benzoylamino)-1H-pyrazole-3-carboxylic acid (2-carboxymethoxymethyl-4-methyl-oxazol-5-ylmethyl)-amide] | > 7.00
11 | CCN(CC)C(=O)COCc1nc(C)c(CNC(=O)c2cc(NC(=O)c3cc(F)c(F)cc3Cl)[nH]n2)o1 [Example 3-8, 5-(2-chloro-4,5-difluoro-benzoylamino)-1H-pyrazole-3-carboxylic acid (2-diethylcarbamoyl methoxymethyl-4-methyl-oxazol-5-ylmethyl)-amide] | > 7.00
12 | Cc1nc(COCC(=O)NCc2ccccc2)oc1CNC(=O)c1cc(NC(=O)c2cc(F)c(F)cc2Cl)[nH]n1 [Example 3-9, 5-(2-chloro-4,5-difluoro-benzoylamino)-1H-pyrazole-3-carboxylic acid [2-(benzylcarbamoyl-methoxymethyl)-4-methyl-oxazol-5-ylmethyl]-amide] | > 7.00
13 | Cc1nc(COCC(=O)N2CCOCC2)oc1CNC(=O)c1cc(NC(=O)c2cc(F)c(F)cc2Cl)[nH]n1 [Example 3-10, 5-(2-chloro-4,5-difluoro-benzoylamino)-1H-pyrazole-3-carboxylic acid [4-methyl-2-(2-morpholin-4-yl-2-oxo-ethoxymethyl)-oxazol-5-ylmethyl]-amide] | > 7.00
14 | Cc1ccc(S(=O)(=O)NCc2nc(C)c(CNC(=O)c3cc(NC(=O)c4cc(F)c(F)cc4Cl)[nH]n3)o2)cc1 [Example 3-11, 5-(2-chloro-4,5-difluoro-benzoylamino)-1H-pyrazole-3-carboxylic acid {4-methyl-2-[(toluene-4-sulfonylamino)-methyl]-oxazol-5-ylmethyl}-amide] | > 7.00
15 | CC(=O)NCc1nc(C)c(CNC(=O)c2cc(NC(=O)c3cc(F)c(F)cc3Cl)[nH]n2)o1 [Example 3-12, 5-(2-chloro-4,5-difluoro-benzoylamino)-1H-pyrazole-3-carboxylic acid [2-(acetylamino-methyl)-4-methyl-oxazol-5-ylmethyl]-amide dihydrochloride] | > 7.00
16 | Cc1nc(CNC(=O)c2ccc(Cl)cc2)oc1CNC(=O)c1cc(NC(=O)c2cc(F)c(F)cc2Cl)[nH]n1 [Example 3-13, 5-(2-chloro-4,5-difluoro-benzoylamino)-1H-pyrazole-3-carboxylic acid {2-[(4-chloro-benzoylamino)-methyl]-4-methyl-oxazol-5-ylmethyl}-amide] | > 7.00
17 | Cc1nc(C(=O)O)oc1CNC(=O)c1cc(NC(=O)c2cc(F)c(F)cc2Cl)[nH]n1 [Example 3-14, sodium 5-({[5-(2-chloro-4,5-difluoro-benzoylamino)-1H-pyrazole-3-carbonyl]-amino}-methyl)-4-methyl-oxazole-2-carboxylate] | > 7.00
18 | Cc1nc(C(=O)N2CCCCC2)oc1CNC(=O)c1cc(NC(=O)c2cc(F)c(F)cc2Cl)[nH]n1 [Example 3-15, 5-(2-chloro-4,5-difluoro-benzoylamino)-1H-pyrazole-3-carboxylic acid [4-methyl-2-(piperidine-1-carbonyl)-oxazol-5-ylmethyl]-amide] | > 7.00
19 | Cc1nc(C(=O)NCc2ccccc2)oc1CNC(=O)c1cc(NC(=O)c2cc(F)c(F)cc2Cl)[nH]n1 [Example 3-16, 5-(2-chloro-4,5-difluoro-benzoylamino)-1H-pyrazole-3-carboxylic acid (2-benzylcarbamoyl-4-methyl-oxazol-5-ylmethyl)-amide] | > 7.00
20 | Cc1nc(C(=O)OCc2ccccc2)oc1CNC(=O)c1cc(NC(=O)c2cc(F)c(F)cc2Cl)[nH]n1 [Example 3-17, 5-(2-chloro-4,5-difluoro-benzoylamino)-1H-pyrazole-3-carboxylic acid (2-benzyloxycarbonyl-4-methyl-oxazol-5-ylmethyl)-amide] | > 7.00
21 | Cc1nc(CNC(=O)c2cc(NC(=O)c3cc(F)c(F)cc3Cl)[nH]n2)oc1C(=O)O [Example 3-18, 5-(2-chloro-4,5-difluoro-benzoylamino)-1H-pyrazole-3-carboxylic acid (5-carboxy-4-methyl-oxazol-2-ylmethyl)-amide] | > 7.00
22 | O=C(O)Cc1nnc(CNC(=O)c2cc(NC(=O)c3cc(F)c(F)cc3Cl)[nH]n2)o1 [Example 3-19, 5-(2-chloro-4,5-difluoro-benzoylamino)-1H-pyrazole-3-carboxylic acid (5-carboxymethyl-[1,3,4]oxadiazol-2-ylmethyl)-amide] | 6.52 to 7.00
23 | NC(=O)Cc1nnc(CNC(=O)c2cc(NC(=O)c3cc(F)c(F)cc3Cl)[nH]n2)o1 [Example 3-20, 5-(2-chloro-4,5-difluoro-benzoylamino)-1H-pyrazole-3-carboxylic acid (5-carbamoylmethyl-[1,3,4]oxadiazol-2-ylmethyl)-amide] | 6.52 to 7.00
24 | Cc1nc(COC(=O)c2cccs2)c(CNC(=O)c2cc(NC(=O)c3cc(F)c(F)cc3Cl)[nH]n2)o1 [Example 3-22, 5-(2-chloro-4,5-difluoro-benzoylamino)-1H-pyrazole-3-carboxylic acid [2-methyl-4-(thiophene-2-carbonyloxymethyl)-oxazol-5-ylmethyl]-amide] | > 7.00
25 | Cc1nc(COC(=O)C2CCCCC2)c(CNC(=O)c2cc(NC(=O)c3cc(F)c(F)cc3Cl)[nH]n2)o1 [Example 3-23, 5-(2-chloro-4,5-difluoro-benzoylamino)-1H-pyrazole-3-carboxylic acid (4-cyclohexanecarbonyloxymethyl-2-methyl-oxazol-5-ylmethyl)-amide] | > 7.00
